Series [1] in a line: Half life period was reported in total cell extract medium. The series is classed as ADME.
The nature of series [2]: Half life period was reported in porcine liver esterase medium. As to conditions: pig. The series is classed as ADME, Sus scrofa.
Series [3] in a line: Half life period was reported in gastric juice. The series is classed as ADME, tissue-based.
Series [4] in a line: Half life period was reported in a culture medium (RPMI 1640 + 10% FCS). The series is classed as ADME.
A short description of series [5]: Half life period was reported in gastric juice, stable; No degradation observed up to 30 days. The conditions noted are these: simulated gi fluid, 720 h. The series is classed as ADME, tissue-based.
The nature of series [6]: Half life period was reported in gastric juice; stable No degradation observed up to 30 days. The series is classed as ADME, tissue-based. The conditions noted are these: simulated gi fluid, 720 h.

Regarding `CC(=O)SCCSP(=S)(OC[C@H]1O[C@@H](n2cc(C)c(=O)[nH]c2=O)C[C@@H]1O)O[C@H]1C[C@H](n2cc(C)c(=O)[nH]c2=O)O[C@@H]1CO` (some centres undefined), the half-life (usually the time needed for the level to fall by half in the phase considered) in series [1] was under 5 min; in series [2], under 2 min; in series [3] it was 168 h; in series [4] it was 6 h.
Consider `Cc1cn([C@H]2C[C@H](OP(=S)(OC[C@H]3O[C@@H](n4cc(C)c(=O)[nH]c4=O)C[C@@H]3O)SCCSC(=O)c3ccccc3)[C@@H](CO)O2)c(=O)[nH]c1=O` (some centres undefined), for which the T1/2 entry in series [5] is listed as “No degradation”. For the same compound, the half-life is 36 min in series [1], 5 min in series [2] and 46.5 h in series [4].
Turning to `CCCCCCCCCCCCOC[C@H]1O[C@@H](n2cc(C)c(=O)[nH]c2=O)C[C@@H]1O`, the half-life in series [1] was 15 min; in series [4], 32 h.
In the case of `Cc1cn([C@H]2C[C@H](OP(=S)(OC[C@H]3O[C@@H](n4cc(C)c(=O)[nH]c4=O)C[C@@H]3O)SCCSC(=O)C(C)(C)C)[C@@H](CO)O2)c(=O)[nH]c1=O` (some centres undefined), the half-life in series [1] was 54 min; in series [2], under 4 min; in series [4] it was 42.7 h. Further, the T1/2 entry in series [6] is listed as “No degradation”.

The values above are taken from ChEMBL document CHEMBL1152113, “The prooligonucleotide approach. III: Synthesis and bioreversibility of a chimeric phosphorodithioate prooligonucleotide” (Bioorg Med Chem Lett, 1996).
